The structures appear in SMILES notation.

Results on 29 compounds are retold here after US8729082B2, “Substituted imidazoquinoxalines” (Bayer Intellectual Property GmbH, priority 2009, dated 2014).

The assay deals with T1, human kinase Mps-1 (Homo sapiens, UniProt P33981).
T1 construct: N-terminally GST-tagged human full length recombinant Mps-1 kinase; purchased Invitrogen, Karslruhe, Germany PV4071
T1 sequence (P33981 1-857): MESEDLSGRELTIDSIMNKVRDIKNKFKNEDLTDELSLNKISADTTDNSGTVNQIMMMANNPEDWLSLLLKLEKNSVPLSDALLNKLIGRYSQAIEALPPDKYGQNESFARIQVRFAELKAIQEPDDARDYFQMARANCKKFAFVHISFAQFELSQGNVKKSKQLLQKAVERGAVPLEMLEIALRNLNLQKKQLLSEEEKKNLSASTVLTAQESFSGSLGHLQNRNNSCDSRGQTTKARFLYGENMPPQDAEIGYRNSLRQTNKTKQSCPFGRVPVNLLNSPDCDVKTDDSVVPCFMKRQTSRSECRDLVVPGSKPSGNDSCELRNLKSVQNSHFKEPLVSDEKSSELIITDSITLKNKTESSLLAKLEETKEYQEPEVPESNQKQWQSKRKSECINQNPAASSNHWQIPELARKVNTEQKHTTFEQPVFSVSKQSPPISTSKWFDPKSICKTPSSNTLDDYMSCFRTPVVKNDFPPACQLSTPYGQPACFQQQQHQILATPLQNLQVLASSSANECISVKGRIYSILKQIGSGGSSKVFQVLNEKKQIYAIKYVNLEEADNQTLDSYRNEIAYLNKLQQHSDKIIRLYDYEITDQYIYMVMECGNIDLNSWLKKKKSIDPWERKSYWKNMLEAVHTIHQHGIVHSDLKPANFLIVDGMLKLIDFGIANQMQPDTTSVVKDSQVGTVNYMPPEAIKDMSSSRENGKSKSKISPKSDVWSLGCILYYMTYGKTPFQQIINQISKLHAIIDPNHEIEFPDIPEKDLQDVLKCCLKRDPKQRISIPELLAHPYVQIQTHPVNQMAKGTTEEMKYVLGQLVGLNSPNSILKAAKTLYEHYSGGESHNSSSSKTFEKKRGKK
Briefly: Mps-1 kinase assay (HTRF). Format: biochemical. To be noted: lowATP; mean; read-out: Mps1 lowATP mean IC50. Put shortly:
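HTRF readout: EDTA-stopped reactions incubated 1 h with europium anti-phospho(Ser/Thr) antibody and streptavidin-XLent, emission ratio 665/620 nm after 350 nm excitation. Kinase step: compound pre-bound 15 min to ~1 nM GST-Mps-1, then 60 min at 22 °C with ATP and biotin-peptide substrate; inhibition scaled between no-inhibitor (0%) and no-enzyme (100%) controls.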
Consider `CC(C)CNc1nc2ccccc2n2c(-c3ccc(C(=O)NC4CC4C)cc3)cnc12` (centres unmarked) [Example 3-29, N-(2-methylcyclopropyl)-4-{4-[(2-methylpropyl)amino]imidazo[1,2-a]quinoxalin-1-yl}benzamide], for which the half-maximal inhibitory concentration (IC50) was 13.8 nM. Turning to `Cc1cc2nc(NCC(C)C)c3ncc(-c4ccc(C(=O)NC5CC5)c(Cl)c4)n3c2cc1C` [Example 2-194, 2-chloro-N-cyclopropyl-4-{7,8-dimethyl-4-[(2-methylpropyl)amino]imidazo[1,2-a]quinoxalin-1-yl}benzamide], the half-inhibitory concentration (IC50) worked out at 22.7 nM.

For the compound `CCCNc1nc2cc(F)c(F)cc2n2c(-c3ccc(NC(=O)NC)cc3)cnc12` [Example 2-114, 1-{4-[7,8-difluoro-4-(propylamino)imidazo[1,2-a]quinoxalin-1-yl]phenyl}-3-methylurea], the IC50 amounted to 16000 nM. Take `Cn1ccc(CNc2nc3cc(C#N)ccc3n3c(-c4ccc(C(=O)NC5CC5)c(Cl)c4)cnc23)n1` [Example 2-251, 2-chloro-4-(7-cyano-4-{[(1-methyl-1H-pyrazol-3-yl)methyl]amino}imidazo[1,2-a]quinoxalin-1-yl)-N-cyclopropylbenzamide]: the concentration for half-maximal inhibition (IC50) worked out at 2540 nM. In the case of `CC(C)CNc1nc2ccc(F)cc2n2c(-c3ccc(C(=O)NC4CC4)cc3)cnc12` [Example 2-55, N-cyclopropyl-4-{8-fluoro-4-[(2-methylpropyl)amino]imidazo[1,2-a]quinoxalin-1-yl}benzamide], the IC50 is 28.3 nM. Consider `N#Cc1ccc2c(c1)nc(NCCO)c1ncc(-c3ccc(C(=O)NC4CC4)cc3)n12` [Example 2-204, 4-{7-cyano-4-[(2-hydroxyethyl)amino]imidazo[1,2-a]quinoxalin-1-yl}-N-cyclopropylbenzamide], for which the IC50 worked out at 77.6 nM. The result for `COCCCNc1nc2cc(C#N)ccc2n2c(-c3ccc(C(=O)NC4CC4)cc3)cnc12` [Example 2-218, 4-{7-cyano-4-[(3-methoxypropyl)amino]imidazo[1,2-a]quinoxalin-1-yl}-N-cyclopropylbenzamide] reads 50.7 nM; that for `O=C(NC1CC1)c1ccc(-c2cnc3c(NCCCN4CCOCC4)nc4ccc(F)cc4n23)cc1Cl` [Example 2-76, 2-chloro-N-cyclopropyl-4-(8-fluoro-4-{[3-(morpholin-4-yl)propyl]amino}imidazo[1,2-a]quinoxalin-1-yl)benzamide], 10900 nM; that for `CCn1nccc1C(=O)Nc1cccc(NC(=O)c2ccc(-c3cnc4c(NCC(C)C)nc5ccccc5n34)cc2)c1` [Example 3-24, 1-ethyl-N-{3-[(4-{4-[(2-methylpropyl)amino]imidazo[1,2-a]quinoxalin-1-yl}benzoyl)amino]phenyl}-1H-pyrazole-5-carboxamide], 3610 nM. `Cc1cc2nc(NCCS(N)(=O)=O)c3ncc(-c4ccc(C(=O)NC5CC5)c(Cl)c4)n3c2cc1C` [Example 2-201, 2-chloro-N-cyclopropyl-4-{7,8-dimethyl-4-[(2-sulfamoylethyl)amino]imidazo[1,2-a]quinoxalin-1-yl}benzamide]: the IC50 is 62.3 nM. The result for `COCCNc1nc2cc(C#N)ccc2n2c(-c3ccc(C(=O)NC4CC4)cc3)cnc12` [Example 2-208, 4-{7-cyano-4-[(2-methoxyethyl)amino]imidazo[1,2-a]quinoxalin-1-yl}-N-cyclopropylbenzamide] reads 79.5 nM. As for `Cn1ccc(Nc2nc3ccccc3n3c(-c4ccc(C(=O)NC5CC5)cc4)cnc23)n1` [Example 2-37, N-cyclopropyl-4-{4-[(1-methyl-1H-pyrazol-3-yl)amino]imidazo[1,2-a]quinoxalin-1-yl}benzamide], the half-maximal inhibitory concentration (IC50) worked out at 1050 nM. Take `CCNc1nc2cc(C)c(C)cc2n2c(-c3ccc(C(=O)NC4CC4)c(Cl)c3)cnc12` [Example 2-185, 2-chloro-N-cyclopropyl-4-[4-(ethylamino)-7,8-dimethylimidazo[1,2-a]quinoxalin-1-yl]benzamide]: the IC50 stood at 97.3 nM. Then `N#Cc1ccc2c(c1)nc(NCc1ccncc1)c1ncc(-c3ccc(C(=O)NC4CC4)c(Cl)c3)n12` [Example 2-246, 2-chloro-4-{7-cyano-4-[(pyridin-4-ylmethyl)amino]imidazo[1,2-a]quinoxalin-1-yl}-N-cyclopropylbenzamide], with 1300 nM; and `Cc1ccc(-c2cnc3c(NCC(C)C)nc4ccccc4n23)c(F)c1` [Example 1-42, 1-(2-fluoro-4-methylphenyl)-N-(2-methylpropyl)imidazo[1,2-a]quinoxalin-4-amine], with 5910 nM; and `O=C(NC1CC1)c1ccc(-c2cnc3c(NCC4CC4)nc4ccc(F)cc4n23)cc1` [Example 2-52, N-cyclopropyl-4-{4-[(cyclopropylmethyl)amino]-8-fluoroimidazo[1,2-a]quinoxalin-1-yl}benzamide], with 48.2 nM.

As to `CNC(=O)c1cccc(-c2cnc3c(NCC(C)C)nc4ccccc4n23)c1` [Example 1-20, N-methyl-3-{4-[(2-methylpropyl)amino]imidazo[1,2-a]quinoxalin-1-yl}benzamide], the 50% inhibitory concentration (IC50) came to 17400 nM. Consider `Cn1cc(CNc2nc3ccc(F)cc3n3c(-c4ccc(C(=O)NC5CC5)c(Cl)c4)cnc23)cn1` [Example 2-86, 2-chloro-N-cyclopropyl-4-(8-fluoro-4-{[(1-methyl-1H-pyrazol-4-yl)methyl]amino}imidazo[1,2-a]quinoxalin-1-yl)benzamide], for which the IC50 stood at 1640 nM. Turning to `Cn1nccc1CNc1nc2cc(F)c(F)cc2n2c(-c3ccc(C(=O)NC4CC4)cc3)cnc12` [Example 2-110, N-cyclopropyl-4-(7,8-difluoro-4-{[(1-methyl-1H-pyrazol-5-yl)methyl]amino}imidazo[1,2-a]quinoxalin-1-yl)benzamide], the concentration for half-maximal inhibition (IC50) turned out to be 28.5 nM. Regarding `O=C(NC1CC1)c1ccc(-c2cnc3c(NCCc4ccncc4)nc4ccccc4n23)cc1` [Example 2-30, N-cyclopropyl-4-(4-{[2-(pyridin-4-yl)ethyl]amino}imidazo[1,2-a]quinoxalin-1-yl)benzamide], the IC50 is 121 nM. Then `CNC(=O)Nc1ccc(-c2cnc3c(NCC(O)CO)nc4cc(C#N)ccc4n23)cc1` (centres unmarked) [Example 2-233, 1-(4-{7-cyano-4-[(2,3-dihydroxypropyl)amino]imidazo[1,2-a]quinoxalin-1-yl}phenyl)-3-methylurea], with 17800 nM; and `N#Cc1ccc(CNc2nc3ccccc3n3c(-c4ccc(C(=O)NC5CC5)cc4)cnc23)cc1` [Example 2-34, 4-{4-[(4-cyanobenzyl)amino]imidazo[1,2-a]quinoxalin-1-yl}-N-cyclopropylbenzamide], with 287 nM; and `CC(C)CNc1nc2ccccc2n2c(-c3ccc(C(=O)NCCC(N)=O)cc3)cnc12` [Example 3-17, N-(3-amino-3-oxopropyl)-4-{4-[(2-methylpropyl)amino]imidazo[1,2-a]quinoxalin-1-yl}benzamide], with 7720 nM. On to `CNC(=O)Nc1ccc(-c2cnc3c(NCCCO)nc4cc(F)c(F)cc4n23)cc1` [Example 2-116, 1-(4-{7,8-difluoro-4-[(3-hydroxypropyl)amino]imidazo[1,2-a]quinoxalin-1-yl}phenyl)-3-methylurea], for which the IC50 turned out to be 5340 nM.

Turning to `CNC(=O)Nc1ccc(-c2cnc3c(NCc4ccco4)nc4ccc(F)cc4n23)cc1` [Example 2-70, 1-(4-{8-fluoro-4-[(furan-2-ylmethyl)amino]imidazo[1,2-a]quinoxalin-1-yl}phenyl)-3-methylurea], the IC50 is 5080 nM.

Turning to `CCNc1nc2cc(C)c(C)cc2n2c(-c3ccc(NC(=O)NC)cc3)cnc12` [Example 2-168, 1-{4-[4-(ethylamino)-7,8-dimethylimidazo[1,2-a]quinoxalin-1-yl]phenyl}-3-methylurea], the IC50 is 134 nM.

Regarding `O=C(NC1CC1)c1ccc(-c2cnc3c(NCCCCO)nc4ccc(F)cc4n23)cc1Cl` [Example 2-79, 2-chloro-N-cyclopropyl-4-{8-fluoro-4-[(4-hydroxybutyl)amino[imidazo]1,2-a]quinoxalin-1-yl}benzamide], the IC50 is 1330 nM. Then `CC(C)CNc1nc2ccccc2n2c(-c3ccc(C(=O)N(C)C)cc3)cnc12` [Example 1-9, N,N-dimethyl-4-{4-[(2-methylpropyl)amino]imidazo[1,2-a]quinoxalin-1-yl}benzamide], with 15200 nM.

With `CCNC(=O)c1ccc(-c2cnc3c(NCC(C)C)nc4ccccc4n23)cc1` [Example 3-8, N-ethyl-4-{4-[(2-methylpropyl)amino]imidazo[1,2-a]quinoxalin-1-yl}benzamide], the IC50 is 134 nM.
